# Results from US20250136931A1, “AN IMPROVED CELL CULTURE PROCESS FOR PRODUCTION OF PROTEIN” (KASHIV BIOSCIENCES, LLC, priority 2022, published 2025).
# How the values were obtained:
# [1] = tested on: host cells producing fusion protein (CTLA4Ig); test: Fed-batch bioreactor (Ambr250) cell culture for fusion protein (CTLA4Ig) production, control process spiked with Mito-TEMPO; assay type: cell-based
# Protocol: (§1) The cell bank vial was thawed in Shake flask 125 (SF125) into the seed media and cell counts were checked. The incubation was continued for 3-5 days during which cells reached the optimum cell density for subculture. The cells were subsequently expanded in Shake flask 500 (SF500) to generate sufficient inoculum for Ambr®250 bioreactors (250 mL).
# Production Fed batch bioreactor run was executed at Ambr®250 bioreactor using process parameters as mentioned below.
# The standard fed-batch culture process involved cell culturing for 12 days and was harvested depending upon the culture cell viability.
# (§2) When the control process was spiked with antioxidant Mito Tempo (total 25 nM added throughout the culturing period) 5 nM each on day 3, 5, 7, 9, 11. It was observed that the harvested protein titer was improved by 28% when analysed by Protein-A HPLC method. It was also observed that overall oxidation of the product was decreased by 18% when analysed by LC-MS method. The overall peak viable cell density of the culture was also found to have increased by 11%.
# [2] = tested on: host cells producing antibody; test: Fed-batch bioreactor (Ambr250) cell culture for antibody production, control process spiked with MitoTempo; assay type: cell-based; settings: total 25 nM, 5 nM each on day 3, 5, 7, 9, 11
# Protocol: as §1, with “is” for “was”, “are” for “were”
# Production Fed batch bioreactor run is executed at Ambr®250 bioreactor using process parameters as mentioned below.
# The standard fed-batch culture process involved cell culturing for 12 days and it is harvested depending upon the culture cell viability.
# as §2, with “is” for “was”, “MitoTempo” for “Mito Tempo”, “improved” for “improved by 28%”, “decreased” for “decreased by 18%”, “increased.” for “increased by 11%.”
# [3] = CTLA4Ig culture, total 25 nM, 5 nM each on day 3, 5, 7, 9, 11
# [4] = CTLA4Ig fed-batch culture, 12 days, 5 nM each on Day 3, 5, 7, 9, 11 (total 25 nM)
smiles,measurement,setting,value
"CC1(C)CC(NC(=O)C[P+](c2ccccc2)(c2ccccc2)c2ccccc2)CC(C)(C)N1[O] [MitoTempo, Mito-TEMPO]",harvested protein titer improved (Protein-A HPLC) versus control process,[1]; [3],28%
same,overall oxidation of the product decreased (LC-MS) versus control process,[1]; [3],18%
same,overall peak viable cell density increased versus control process,[1]; [3],11%
same,Harvest Oxidation (%) by LC-MS,[1]; [4],12.2%
same,Harvest Titer by Protein-A HPLC,[1]; [4],2.7 g/L
same,Peak cell density by Automated cell counter,[1]; [4],18.8 ×10^6 cells/mL
same,harvested protein titer (Protein-A HPLC) versus control process,[2],improved
same,overall oxidation of the product (LC-MS) versus control process,[2],decreased
same,overall peak viable cell density of the culture versus control process,[2],increased
